Measurements from PubChem BioAssay (NCI).
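Test compounds were applied to cells in 96-well plates for 48 hours at 5 doses. Here, GI50 denotes the concentration required for 50% inhibition of growth. TGI: total growth inhibition.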

Assays:
Assay in all cases: NCI anticancer screen, dose series, 48 h
786-0 renal = test system: 786-0 renal
BT-549 breast = test system: BT-549 breast
EKVX NSCLC = test system: EKVX NSCLC
HCT-15 colon = test system: HCT-15 colon
LOX IMVI melanoma = test system: LOX IMVI melanoma
NCI-H23 lung = test system: NCI-H23 lung
NCI-H460 lung = test system: NCI-H460 lung
OVCAR-5 ovarian = test system: OVCAR-5 ovarian
OVCAR-8 ovarian = test system: OVCAR-8 ovarian
SK-OV-3 ovarian = test system: SK-OV-3 ovarian
TK-10 renal = test system: TK-10 renal
SF-539 CNS = test system: SF-539 CNS

Compound	TGI (786-0 renal) [µM]	TGI (BT-549 breast) [µM]	TGI (EKVX NSCLC) [µM]	TGI (HCT-15 colon) [µM]	TGI (LOX IMVI melanoma) [µM]	TGI (NCI-H23 lung) [µM]	TGI (NCI-H460 lung) [µM]	TGI (OVCAR-5 ovarian) [µM]	TGI (OVCAR-8 ovarian) [µM]	TGI (SK-OV-3 ovarian) [µM]	TGI (TK-10 renal) [µM]	TGI (SF-539 CNS) [µM]	GI50 (BT-549 breast) [µM]	GI50 (EKVX NSCLC) [µM]	GI50 (SK-OV-3 ovarian) [µM]	GI50 (TK-10 renal) [µM]	GI50 (NCI-H460 lung) [µM]
C=C1C(=O)O[C@H]2C1C[C@@H](OC(C)=O)/C(C)=C/CC[C@@]1(C)O[C@H]21 (stereo partly drawn)	23.9	19	35.2	22.9	19.1	37.2	> 100	31.5	32.5	64	17.4	–	–	–	–	–	–
CC(C)CC(N)C(=O)Nc1ccc2ccccc2c1 (stereo not drawn)	> 100	> 100	> 100	> 100	> 100	> 100	–	> 100	> 100	> 100	> 100	> 100	–	–	–	–	–
COc1ccccc1/C=C/C1=NN(c2cccc(S(=O)(=O)O)c2)C2(C1)C(Cl)C(=O)N2c1nc2ccccc2s1 (stereo not drawn)	> 59.8	> 100	> 100	> 100	> 67	> 100	> 100	> 100	> 100	> 100	> 100	> 100	–	–	–	–	–
C=CCOC(=O)C1=C(C)NC2=N[C@H](CCCCCCCCC)C[C@@H]3CCC1N23 (stereo partly drawn)	39.3	37.6	53.1	56.2	44.9	41.8	72.6	48.2	> 100	75.2	39.4	38.1	–	–	–	–	–
CCCSc1ccc2[nH]c(N3C(=O)/C(=C/c4ccc(SC)cc4)N=C3c3ccccc3)cc2c1	> 50	> 50	> 50	> 50	> 50	> 50	> 50	> 50	> 50	> 50	> 50	48.8	–	–	–	–	–
CC(=O)NCC1OC2COC(c3ccccc3)OC2C(NC(=O)c2ccccc2)C1OC(=O)c1ccccc1 (stereo not drawn)	> 100	> 100	> 100	> 100	> 100	> 100	> 100	> 100	> 100	> 100	> 100	> 100	–	–	–	–	–
COc1cc2c(c(OC)c1OC)-c1ccc(SC)c(=O)cc1[C@@H](O)CC2	> 100	–	–	–	> 100	–	> 100	–	–	–	> 100	–	98.4	> 100	> 100	> 100	–
O=C(NNC(=S)NC1CCCCC1)C12CC3CC(CC(C3)C1)C2	> 100	> 100	–	> 100	> 100	> 100	> 100	> 100	> 100	> 100	> 100	> 100	–	–	–	–	–
Cc1ccc2c(=O)cc(-c3ccc4ccccc4c3)[nH]c2n1	> 100	> 100	> 100	> 100	39.6	28.7	> 100	> 100	> 100	> 100	> 100	54.1	–	–	–	–	3.82
O=[S@]1c2ccc3ccccc3c2N[C@@H]2[C@H]1[C@H]1C=C[C@@H]2C1	> 100	> 100	> 100	> 100	> 100	> 100	> 100	> 100	> 100	> 100	> 100	> 100	–	–	–	–	–
CCOP(=O)(OCC)C(C(=O)OC)C(=O)C(=O)Nc1cccc(O)c1 (stereo not drawn)	> 100	> 100	> 100	> 100	> 100	> 100	> 100	> 100	> 100	> 100	> 100	> 100	–	–	–	–	–
C=C(C(=O)OC)[C@@H]1C[C@@H](OC(C)=O)C2=C[C@H](C[C@@]3(C)O[C@@H]3C3=CC(C)=C(O3)[C@H]1OC(C)=O)OC2=O	49.1	31.3	38.9	> 100	41.8	35.5	64.5	36.6	> 100	> 100	31.7	79	–	–	–	–	–
CC(C)=CCC[C@@H](C)C1=C(O)C(Nc2ccccc2Cl)=C(C)C(=O)C1=O	> 52	> 75	> 75	> 75	> 75	55.1	> 75	> 75	> 41	> 75	> 75	35.7	–	–	–	–	–
CN(CCCNC(=O)c1cn(C)c2c1Cc1ccccc1-2)CCCNC(=O)c1cn(C)c2c1Cc1ccccc1-2	17.9	39.2	22.6	25.2	24.6	29.5	23.8	29.9	29.8	32.6	25.1	31.8	–	–	–	–	–
O=C(/C=C/c1ccccc1)Nc1ccccc1SCCCCl	> 100	> 36	> 100	> 100	> 68.2	40.7	> 82.2	> 100	> 69.8	> 100	> 100	39.8	–	–	–	–	–
CCOC(=O)c1nc2cc(C(F)(F)F)ccc2nc1Nc1ccc(C(=O)OC)s1	84.8	74.6	> 100	> 100	> 100	> 100	> 100	> 100	> 100	> 100	> 100	–	–	–	–	–	–
COc1ccc2c(c1)/C(=C\c1c(Cl)[nH]c3ccccc13)C(=O)N2	17	14.8	18.5	37.2	17.5	25	14.5	26.8	23.8	9.87	23	12.5	–	–	–	–	–
CC(Nc1ccc(Cl)c(Cl)c1)c1ccncc1 (stereo not drawn)	60.5	86.3	> 100	> 100	40	> 100	44	–	76.2	29.3	> 100	56.4	–	–	–	–	–
NC1CCC(N(CC(=O)O)CC(=O)O)C(N(CC(=O)O)CC(=O)O)C1 (stereo not drawn)	–	> 100	–	> 100	> 100	> 100	> 100	> 100	> 100	> 100	> 100	> 100	–	–	–	–	–
